Results as given in patent US7642239B2, “Inhibition of placenta growth factor (PLGF) mediated metastasis and/or angiogenesis” (Center for Molecular Medicine and Immunology, priority 2005, dated 2010).
Marks after values point to notes of the source that are not given here. Ends that are not written are not given here.

Assays:
[1] = test system: MCF-7 human breast cancer cells; assay type: cell-based; settings: human, 24 h, 2 μM
Experimental: MTT (3-(4,5-dimethylthiazolyl-2)-2,5-diphenyltetrazolium bromide, Sigma) assays were performed under conditions of low serum (1%) to determine PlGF effects on cell viability, the toxicity of the peptides, and their effect on PlGF-mediated breast tumor cell growth (Mosmann, 1983, J Immunol Meth 65:55-63; Modrak et al., 2000, Biochem Biophys Res Commun 268:603-606). Peptide concentration was 1-2 μM, and the concentration of exogenous PlGF was 2 nM. The human breast tumor lines tested were: MDA-MB-231, MDA-MB-468 and MCF-7 (ATCC, Mannasses, Va.). Briefly, 96-well plates were seeded with 5-10×10^4 cells/ml in medium containing 1% fetal bovine serum (FBS). After 24 h, cells were treated with individual peptides at a concentration of 1-2 μM (4 binding peptides), in quadruplicate, and/or rhuPlGF at a 2-nM concentration. After the designated time points, 0.5 mg/ml MTT (5 mg/ml stock diluted 1:10 in RPMI medium with no serum) was added to the wells (Mosmann, 1983). When purple crystals were clearly visible in the cells, and the plate appeared to be fully developed, the reaction was terminated with acid alcohol (0.04M HCl in isopropanol). Absorbance of the dissolved crystals was read at 570 nm. The 24-h time point was chosen because the in vitro effects of PlGF on tumor cell migration were measurable at this time (see wound-healing assay below). These assays were also performed using medium with 10% FBS, with similar results.

[2] = test system: MDA-MB-231; experiment: Wound-healing (motility) assay, MDA-MB-231; assay type: cell-based, human; settings: for Relative activity: unit assumed; for Migrating cells: 18-24 h
Experimental: (§1) MCF-7, MDA-MB-23 1, and MDA-MB-468 breast tumor cell lines or HECs were seeded onto sterile glass coverslips in Petri dishes or six-well plates. When the cells were 70-80% confluent, the monolayers were scratched with a sterile plastic pipet tip.
(§2) Inhibitor concentrations were 50 μM PD98059 (PD98) (mitogen activated protein kinase-kinase 1 [MEK1] inhibitor), 5 nM Wortmannin (phosphatidyl inositol 3 kinase [PI3K] inhibitor), or human recombinant soluble Flt-1 (sFlt-1) (R&D Systems). […] Cells were pre-incubated with PD98 and Wortmannin for 15-30 min before addition of PlGF. Stained (Wright-Giemsa) and mounted coverslips were examined microscopically. Five to ten 100× fields were evaluated by counting the number of cells separated from the wound edges and which appeared to be migrating toward the center of the wound. Results are reported as the average number of cells migrating into the wound/100× field. In some cases data from separate experiments were combined to accommodate inclusion of various treatments in the tables.
(§3) Antibody concentration was 1 μg/ml. MEK1 inhibitor, PD98059 (PD98), 50 μM. PI3K inhibitor, Wortmannin, 5 nM. […] Values for antibody and inhibitor treatments were from separate experiments which included all relevant controls. […] UT denotes untreated controls. *P<0.01 (ANOVA) compared to UT; † P<0.02 (ANOVA) compared to PlGF only. ‡ P<0.001 (ANOVA) compared to PlGF only.

[3] = test system: MCF-7; experiment: Matrigel cell invasion assay, MCF-7; assay type: cell-based, human; settings: 48 h
Experimental: Cellular invasion was determined by addition of 5×10^4cells to growth factor-reduced Matrigel invasion chambers (BD Biosciences Discovery Labware, Bedford, Mass.) (Taylor et al., 2003b; Passaniti et al., 1992, Lab Invest 67, 519-528). Additives to the Matrigel® plugs were pre-incubated together in a total volume of 100 μl PBS at RT for 10 min, after which each additive was added to the Matrigel. Growth factors (2.0 or 0.2 nM), peptide (2 μg/ml), or antibody (1 μg/ml) were added to cells in low serum (0.1% fetal bovine serum [FBS]) medium. Baseline and chemoattractant-based invasion (10% FBS) were included. The number of invading cells was determined by counting the number of cells on the bottom of the invasion chamber membrane after staining at 100× magnification after 24 h (MDA-MB-231) or 48 h (MCF-7, MDA-MB-468). The results of three to five separate experiments are presented.

[4] = test system: MDA-MB-231 s.c. xenograft; experiment: Subcutaneous MDA-MB-231 xenograft growth and lung metastasis; assay type: in vivo, nude mice
Experimental: The tissue-culture-grown human breast tumor cell line, MDA-MB-231, was implanted subcutaneously (s.c.) on the flanks of nude mice. When tumors were visible, the mice were weighed and the tumors measured. Treatment with peptides was begun when tumors averaged about 0.06-0.12 cm^3 in volume. Mice were treated with 200-μg peptide in PBS by i.p. injection at 3-4-day intervals for 4 weeks. Animals were weighed and the tumors measured at each treatment. In a second experiment, the control peptide, CPA, was included. Three days after the final treatment, tumors and lungs were harvested. Tumor burden of the lungs (from experiment 1) was determined by counting colonies (<20 cells), clusters (>20-100 cells), and nodules (>100 cells) seen in all the lung tissue on a total of 4 slides or sections for each mouse. Data are presented as the average number of each size of metastasis for each treatment group (3-4 mice/group). The total number of each was summed for each treatment group, and divided by the total number of mice in that group. The percent inhibition for metastasis was determined by the formula: % inhibition=(# mock-treated−# treated/# mock-treated)×100.
To test for therapeutic activity of the peptide, BP1, mice were implanted with human breast cancer cells, MDA-MB-231, which produces lung metastases spontaneously when implanted as a subcutaneous tumor. When the tumors averaged 0.12 cm^3 in volume, either mock-treatment or therapy with BP1 was initiated at 200 μg, two times per week for 4 weeks. […] In a subsequent experiment, treatment was commenced when tumors were 0.07-0.08 cm^3. After 4 weeks of treatment, as described, the mean volume of the mock- and CPA-treated tumors was 0.25 and 0.33 cm^3, respectively, whereas BP1-treated tumors averaged 0.04 cm^3 (P<0.05 BP1 vs. mock- or CPA-treated tumors) (FIG. 3A).

[5] = test system: MCF-7; experiment: Wound-healing (motility) assay, MCF-7; assay type: cell-based, human; settings: for Relative activity: unit assumed; for Migrating cells: 18-24 h
Experimental: as §1, §2, §3

[6] = PlGF 2 nM ± test agent, relative to PlGF-only value
[7] = VEGF 2 nM ± test agent, relative to VEGF-only value

## SHRYRLAIQLHASDSSSSCV [BP1]
[1]
  viability lowered, peptide alone: 21%
[2]; [6]
  Relative activity: 32%
[2]; [7]
  Relative activity: 132%
[2]; antibody 1 μg/ml, peptide 2 μM
  effect on PlGF-stimulated motility (in words): inhibited
[2]; growth factor PlGF 2 nM ± test agent (Flt-1 2 nM, peptide 2 μM, antibody 1 μg/ml, PD98059 50 μM, Wortmannin 5 nM)
  Migrating cells: 13.6 ± 6.1† cells/100× field
[2]; growth factor VEGF 2 nM ± test agent (peptide 2 μM, antibody 1 μg/ml)
  Migrating cells: 14.7 ± 2.1 cells/100× field
[3]; PlGF 0.2 nM ± peptide 2 μg/ml
  Average fold-change in the number of cells on the membrane compared to untreated controls: 0.3 ± 0.0 fold
[3]; peptide 2 μg/ml alone
  Average fold-change in the number of cells on the membrane compared to untreated controls: 0.7 ± 0.4 fold
[4]; start at 0.12 cm^3, 200 μg two times per week for 4 weeks
  reduction in tumor size compared to mock-treated controls: 37%
[4]; subsequent experiment, start at 0.07-0.08 cm^3, 200 μg i.p., mock 0.25
  mean tumor volume after 4 weeks of treatment: 0.04 cm^3
[4]; total lung tissue/mouse, mock 36±6
  lung colonies (<20 cells) per mouse: 5±2
[4]; total lung tissue/mouse, mock 76±19
  lung clusters (>20-100 cells) per mouse: 9±2
[4]; total lung tissue/mouse, mock 78±25
  lung nodules (>100 cells) per mouse: 5±2
[4]; vs mock-treated
  decrease in the number of metastatic lung nodules: 94%
[5]; [6]
  Relative activity: 45%
[5]; [7]
  Relative activity: 102%
[5]; antibody 1 μg/ml, peptide 2 μM
  effect on PlGF-stimulated motility (in words): inhibited
[5]; growth factor PlGF 2 nM ± test agent (Flt-1 2 nM, peptide 2 μM, antibody 1 μg/ml)
  Migrating cells: 10.2 ± 7.8† cells/100× field
[5]; growth factor VEGF 2 nM ± test agent
  Migrating cells: 12.9 ± 2.9 cells/100× field
